Measured values taken from paper PMC9722750, “Antibacterial and β-amyloid precursor protein-cleaving enzyme 1 inhibitory polyketides from the fungus Aspergillus chevalieri” (Frontiers in Microbiology, 2022).
Converted amounts (≈) assume the structure as drawn. Structures can show the parent of a compound that is named as a salt.

What was measured:
[1] = tested on: methicillin-resistant S. aureus (MRSA); assay: Antibacterial assay; type: cell-based, Staphylococcus aureus; details: for inhibition at 200 µM: read-out: Inhibition rate against Methicillin-resistant Staphylococcus aureus
Experimental: (§1) In this study, the tested bacteria strains, Escherichia coli ATCC25922, Staphylococcus aureus subsp. aureus ATCC29213, Salmonella enterica subsp. enterica ATCC14028, Pseudomonas aeruginosa ATCC27853, methicillin-resistant S. aureus (MRSA) were purchased from China General Microbiological Culture Collection Center (CGMCC). All the strains were cultured in Mueller-Hinton broth (Oxoid, Thermo Fisher Scientific) at 37°C with shaking at 200 rpm overnight. Each culture was diluted 40-fold in fresh MHB broth and incubated at 37°C with shaking (200 rpm) for another 2–3 h. The mid-log phase cultures were diluted to a concentration of 5 × 10^5 CFU/mL by McFarland Standards, which was used as seeding solution for following antibacterial assays. Each well of the compound-containing 96-well plates was seeded with 100 μL of aforementioned seeding solution, giving a final compound concentration 200 μM. Plates were covered and incubated at 37°C for 24 h. The inhibitory rates were calculated by [(1-OD625sample)/OD625negative control] × 100%. Penicillin G sodium and ceftazidime were used as positive controls (inhibitory rates >99%) ([Zhao Z.-Z. et al., 2018]). Compounds were first tested for their potential against five bacterial strains at a single concentration of 200 μM. If the inhibitory rate above 50%, different concentrations of the compounds were further evaluated for the antibacterial ability.

[2] = tested on: Pseudomonas aeruginosa ATCC27853; assay: Antibacterial assay; type: cell-based; details: for inhibition at 200 µM: Pseudomonas aeruginosa, ATCC27853, read-out: Inhibition rate against Pseudomonas aeruginosa
Experimental: as §1

[3] = molecular target: β-amyloid precursor protein-cleaving enzyme 1 (β-secretase, BACE1) (Homo sapiens, UniProt P56817); assay: BACE1 FRET assay; type: biochemical; details: 3 h at room temperature, read-out: IC50 BACE1 inhibition
Experimental: β-amyloid precursor protein-cleaving enzyme 1 (β-secretase, BACE1) assays were performed according to the literature ([Qi et al., 2018]; [Yatsu et al., 2019]). First, 10 μL of the test sample, 10 μL of the 722 nM BACE1 substrate (Rh-[…]-Quencher in 50 mM ammonium bicarbonate), and 10 μL of the BACE1 enzyme (1 U/mL) were mixed in black 384-well plates and incubated for 3 h at room temperature. The fluorescence intensity was measured at 540 nm excitation and 590 nm emission using a microplate reader (Tecan Spark 10M, TECAN, Männedorf, Switzerland) at the time points of 1 h and 3 h. The BACE1 inhibition rate was calculated by the following equation: BACE1 inhibition rate (%) = {1–[(S–S0)–(B–B0)/(C–C0)–(B–B0)]} × 100, where C is the fluorescence of a DMSO control (enzyme, substrate, and assay buffer with DMSO) after 3 h of incubation, C0 is the fluorescence of the DMSO control at 1 h after incubation, B is the fluorescence of a non-enzyme control (substrate and assay buffer with DMSO) after 3 h of incubation, B0 is the fluorescence of the non-enzyme control at 1 h after incubation, S is the fluorescence of the tested samples (enzyme, sample solution, and substrate) after 3 h of incubation, and S0 is the fluorescence of the tested samples at 1 h after incubation. The IC50 values were calculated by GraphPad Prism software (v5.02, CA, USA).

[4] = tested on: Salmonella enterica subsp. enterica ATCC14028; assay: Antibacterial assay; type: cell-based; details: for inhibition at 200 µM: Salmonella enterica, ATCC14028, 24 h, read-out: Inhibition rate against Salmonella enterica subsp. enterica
Experimental: as §1

[5] = tested on: Escherichia coli ATCC25922; assay: Antibacterial assay; type: cell-based
Experimental: as §1

[6] = tested on: Staphylococcus aureus subsp. aureus ATCC29213; assay: Antibacterial assay; type: cell-based; details: 200 μM, 24 h
Experimental: as §1

[7] = in vitro; type: cell-based; details: human
Experimental: The human lung cancer cell line A549 used in this study was purchased from Conservation Genetics CAS Kunming Cell Bank. The cells were cultured in high-glucose DMEM with 10% fetal bovine serum, 100 mg/mL streptomycin, 100 U/mL penicillin, and kept in an incubator at 37°C under an atmosphere of 5% CO2. The cell viability was assessed by 3-(4,5-dimethylthiazol-2-yl)-2,5-diphenyltetrazolium bromide (MTT) method. […] In brief, 100 μL of adherent cells was seeded to each well of a 96-well cell culture plate. The plate was kept for 12 h for adherence. […] However, suspended cells were seeded with the same density of 1 × 10^5 cells/mL every 100 μL of culture medium before adding the test compounds. Then the plate was incubated for another 48 h. After 48 h of incubation, 100 μg of MTT was added to each well, another 4 h of incubation was continued at 37°C. After removal of 100-μL culture medium, the cells were lysed with 20% SDS-50% DMF (100 μL). The remained lysates were subjected to measure the optical density value at 595 nm with a 96-well microtiter plate reader (Tecan Spark 10M, Switzerland). […] All the experiments were in triplicates. The IC50 value was calculated by a published method ([Chen et al., 2018]).

[8] = Staphylococcus aureus, MRSA, 200 μM, 24 h

Sequence of β-amyloid precursor protein-cleaving enzyme 1 (β-secretase, BACE1) (P56817 22-501 limits assumed): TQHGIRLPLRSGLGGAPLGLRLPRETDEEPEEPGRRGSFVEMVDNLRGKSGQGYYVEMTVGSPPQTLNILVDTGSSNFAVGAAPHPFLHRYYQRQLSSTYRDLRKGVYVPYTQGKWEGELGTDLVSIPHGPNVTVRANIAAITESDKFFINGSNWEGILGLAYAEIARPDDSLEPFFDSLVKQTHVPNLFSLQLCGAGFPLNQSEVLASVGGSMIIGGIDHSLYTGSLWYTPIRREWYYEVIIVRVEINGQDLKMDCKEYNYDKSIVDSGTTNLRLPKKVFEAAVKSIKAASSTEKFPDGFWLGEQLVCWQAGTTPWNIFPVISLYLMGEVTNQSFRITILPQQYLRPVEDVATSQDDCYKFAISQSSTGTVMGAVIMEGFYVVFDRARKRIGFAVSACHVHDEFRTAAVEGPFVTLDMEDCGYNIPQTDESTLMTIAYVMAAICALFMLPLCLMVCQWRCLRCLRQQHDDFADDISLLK

For `COc1cc(O)cc2c1C(=O)c1c(O)cc(C)cc1[C@H]2[C@@H](C)CC(C)=O` [Compound 5, (10R,12S)-Chevalierone], the “antibacterial activity against MRSA (in words)” value [1] was “significant antibacterial activities”, the inhibition at 200 µM [1, 8] was 88.5% and the MIC50 ([1]; Staphylococcus aureus, MRSA, read-out: MIC50 against MRSA) was 44 µM (≈ 15.6 µg/mL). For the same compound, the “antibacterial activity against P. aeruginosa (in words)” value [2] was “significant antibacterial activities” and the inhibition at 200 µM ([2]; 200 μM, 24 h) was 91.5%.
With `COc1cc(O)c2c(c1)C(=O)c1cc(C)cc(O)c1C2=O` [Compound 15, physcion] the inhibition at 200 µM ([2]; 200 μM, 24 h) was 38%.
Compound `CCC[C@@H](O)[C@@H]1C=Cc2c(cc(CC=C(C)C)c(O)c2C=O)O1` [Compound 13, (3′S,4′R)-6-(3′,5-epoxy-4′-hydroxy-1′-heptenyl)-2-hyd roxy-3-(3″-methyl-2″-butenyl)benzaldehyde] has an IC50 [3] of over 100 µM.
With `COc1cc(O)cc2c1C(=O)c1c(O)cc(C)cc1[C@@H]2[C@H](C)CC(C)=O` [Compound 3, (10S,12R)-Chevalierone] the “antibacterial activity against MRSA (in words)” value [1] was “significant antibacterial activities”, the inhibition at 200 µM [1, 8] was 74.1% and the “antibacterial activity against P. aeruginosa (in words)” value [2] was “significant antibacterial activities”. It also gave an inhibition at 200 µM ([2]; 200 μM, 24 h) of 81.9%.
`CCCCCC1Cc2c(cc(CC=C(C)C)c(O)c2C(=O)O)O1` (racemic) [Compound 1, (±)-Chevalieric acid] showed an IC50 [3] of 101 µM.
For `CCCCC/C=C/c1c(O)cc(CC=C(C)C)c(O)c1C=O` [Compound 8, tetrahydroauroglaucin], the IC50 [3] was 36.1 µM.
`CCC/C=C/C=C/c1c(O)cc(CC=C(C)C)c(O)c1C=O` [Compound 9, dihydroauroglaucin] gave an IC50 [3] of over 100 µM.
For `CCCCCCCc1c(O)cc2c(c1C=O)OC(C)(C)C=C2` [Compound 6, asperglaucin B], the IC50 [3] was over 100 µM and the MIC ([1]; Staphylococcus aureus, MRSA, read-out: MIC against MRSA) was 44 µM (≈ 13.3 µg/mL).
`CC(C)=CCc1cc2oc(=O)ccc2c(C=O)c1O` [Compound 12, cristaldehyde A] showed an IC50 [3] of over 100 µM.
Work on `CC1(C)S[C@@H]2[C@H](NC(=O)Cc3ccccc3)C(=O)N2[C@H]1C(=O)O` [Penicillin G sodium, Penicillin G sodium salt, reference compound] yielded an inhibition at 200 µM [1, 8] of 60.5%, an inhibition at 200 µM [4] of 75.7% and an inhibition at 200 µM ([2]; 200 μM, 24 h) of 99.9%.
Compound `COc1cc(O)cc2c1C(=O)c1c(O)cc(C)cc1[C@@H]2[C@@H](C)CC(C)=O` [Compound 2, (10S,12S)-Chevalierone] has an inhibition at 200 µM ([2]; 200 μM, 24 h) of 38.2%.
For “1,4,5-trihydroxy-7-methoxy-2-methyl-anthraquinone [Compound 14]”, the “Inhibition rate against Methicillin-resistant Staphylococcus aureus” value ([1]; 200 μM, 24 h) was 52.0%, the “Inhibition rate against Salmonella enterica subsp. enterica” value ([4]; 200 μM, 24 h) was “– (This symbol “–” represent no activity)” and the “Inhibition rate against Pseudomonas aeruginosa” value ([2]; 200 μM, 24 h) was 38.2%. For the same compound, the “Inhibition rate against Escherichia coli” value ([5]; 200 μM, 24 h) was “– (This symbol “–” represent no activity)” and the “Inhibition rate against Staphylococcus aureus subsp. aureus” value [6] was “– (This symbol “–” represent no activity)”.
`CCC/C=C/c1cc2c(C=O)c(O)c(CC=C(C)C)cc2o1` [Compound 7, 2-(2′,3-epoxy-1′,3′-heptadienyl)-6-hydroxy-5-(3-methyl-2-butenyl)benzaldehyde] gave an IC50 [3] of over 100 µM.
Work on `C/C=C/C=C/CCc1c(O)cc(CC=C(C)C)c(O)c1C=O` [Compound 11, isodihydroauroglaucin] yielded an IC50 [3] of 34.9 µM.
`CCCCCCCc1c(O)cc(CC=C(C)C)c(O)c1C=O` [Compound 10, flavoglaucin] gave an IC50 [3] of 40.9 µM and an IC50 at 48 h [7] of 39.7 µM.
In the case of `COc1cc(O)cc2c1C(=O)c1c(O)cc(C)cc1[C@H]2[C@H](C)CC(C)=O` [Compound 4, (10R,12R)-Chevalierone], the “antibacterial activity against MRSA (in words)” value [1] is reported as “significant antibacterial activities”, the inhibition at 200 µM [1, 8] is reported as 85% and the “antibacterial activity against P. aeruginosa (in words)” value [2] is reported as “significant antibacterial activities”. For the same compound, the inhibition at 200 µM ([2]; 200 μM, 24 h) was 81%.
Compound `CC(C)(O/N=C(\C(=O)N[C@@H]1C(=O)N2C(C(=O)[O-])=C(C[n+]3ccccc3)CS[C@H]12)c1csc(N)n1)C(=O)O` [Ceftazidime, ceftazidime, reference compound] has an inhibition at 200 µM [4] of 99.3% and an inhibition at 200 µM ([5]; Escherichia coli, ATCC25922, 24 h, read-out: Inhibition rate against Escherichia coli) of 99.8%.
